Tests used:
[1] = system: dental plaque formation; test: 24-hour plaque accumulation model, direct application to the teeth with a dental swab; assay type: in vivo, dog; details: dogs
Procedure: Ascorbyl palmitate was assessed for its ability to inhibit dental plaque in 24-hour plaque accumulation model, according to a modification of the method of […] et al. ([…] et al. (2007) J. Vet. Dent. 24(1): 14-20), in which the compound to be tested is directly applied to the teeth as a solution using a dental swab as applicator, and the dental plaque accumulation time was set at 24 hours. A solution of ascorbyl palmitate (0.3 g in 10 mL soybean oil) was administered to the cleaned buccal tooth and gingival surfaces of each dog using a dental swab, in such a manner that 0.3 g of ascorbyl palmitate was applied. Control animals were treated with soybean oil alone. Twenty-four hours after application, the accumulation of dental plaque was quantitatively evaluated using a standardized method designated as the gingival contour plaque index (“GCPI”). […] The GCPI uses a scale of 0-100%.

[2] = system: dental plaque formation; test: 8-day GCPI dental plaque quantification model, feeding food coated with ascorbyl palmitate solution; assay type: in vivo, dogs; details: four days
Procedure: Ascorbyl palmitate was assessed for its ability to inhibit dental plaque formation when applied indirectly, i.e., by feeding animals a pet food composition as described. In this experiment, the 8-day GCPI dental plaques quantification model of […] et al. was used ([…] et al. (2007) J. Vet. Dent. 24(1): 14-20). The teeth of the test animals are cleaned at the beginning of the study, after which the animals were fed either a control food (a commercially-available canine pet food composition) or the same food upon which a solution of ascorbyl palmitate in soybean oil was sprayed to a final concentration (w/w) of 0.1% of the total weight of the food. The food coated with the ascorbyl palmitate solution was fed to dogs over a period of four days and dental plaque accumulation was quantified and compared with their dental plaque accumulation while on the control food. […] The GCPI uses a scale of 0-100%.

CCCCCCCCCCCCCCCC(=O)OC[C@H](O)[C@H]1OC(=O)C(O)=C1O [ascorbyl palmitate]
improvement in plaque accumulation versus soybean oil control ([1]; 0.3 g applied directly, 24 hours): 27.8% | Plaque accumulation average score (GCPI) ([1]; 0.3 g in 10 mL soybean oil applied to cleaned buccal tooth and gingival surfaces, 24 hours after application, GCPI scale 0-100%, soybean oil control 24.9±9.4): 18.9±9% | Plaque accumulation average score (GCPI) ([2]; dogs fed food sprayed with ascorbyl palmitate in soybean oil to 0.1% (w/w) of the food, GCPI scale 0-100%, control food 68.2±11.9): 53.7±12.1% | improvement in plaque accumulation versus control food ([2]; dogs, food with 0.1% (w/w) ascorbyl palmitate): 21.3%

Source: patent publication US20140348897A1, “TREATMENT OR REDUCTION OF DENTAL CONDITIONS WITH ASCORBYL ESTERS” (HILL'S PET NUTRITION, INC., priority 2011, published 2014)
